Data on eleven compounds can be found in patent publication US5298622A, “Spiroindane opiate analogs” (priority 1993, dated 1994).

Non-standard residues stand in square brackets, D forms with d. Residues, ends and D or L forms follow the SMILES beside them. *: point of attachment. Tyr(Nα,Nα-allyl2) = C=CCN(CC=C)[C@@H](Cc1ccc(O)cc1)C(=O)*; Aib = CC(C)(N)C(=O)O

Experiment [1] relates to Guinea Pig Ileal Longitudinal Muscle (GPI), mu opioid receptor. The experiment can be described thus: cells. The experiment is classed as cell-based. The procedure:
(§1) 1. Guinea Pig Ileal Longitudinal Muscle (GPI). Ilea from guinea pigs were taken approximately 10 cm from the ileocecal junction, and a strip of longitudinal muscle with the myenteric plexus attached was prepared by the method of H. B. Rang et al., Brit. J. Pharmacol., 22, 356 (1964). A 1 cm portion of this strip was then mounted between two platinum electrodes placed in a 10 ml organ bath and connected to an isometric transducer; contractions were recorded on a polygraph. Contractions of the ileal strip were initiated by supramaximal rectangular pulses in all preparations (80 V of 0.5 ms duration at a frequency of 0.1 Hz). Krebs bicarbonate solution containing 1.25 μM chlorpheniramine maleate was the bathing solution and was continuously bubbled with 95% O2 and 5% CO2. The organ bath was maintained at 36°-37° C. The longitudinal muscle strip was allowed to equilibrate with continuous stimulation for a minimum of 90 min. Cumulative concentration-response curves were determined after drugs were added to the bath in 10- to 50-μl amounts and washed out with two 10 ml portions of buffer after noting their maximum effects.
(§2) Concentration-response curves were obtained in the absence (control) and the presence of the antagonist are expressed as IC50 values. The IC50 ratio represents the IC50 in the presence of the antagonist divided by the control IC50 value in the same tissue. Therefore, a high IC50 ratio represents a correspondingly high degree of antagonism at a particular receptor. This IC50 ratio was employed to calculate the Ke value using the equation Ke=[antagonist]/(IC50 ratio-1). Therefore, a low Ke represents a correspondingly high degree of binding at a particular receptor.

For experiment [2], the system named is mouse vas deferens (MVD), delta opioid receptor. The experiment can be described thus: Mouse vas deferens (MVD) assay, agonism. The experiment is classed as cell-based. The note with it: % Inhibition at 1000 nM (footnote 4); for inhibition at 1 µM: Mus musculus. The procedure: (§3) 2. Mouse Vas (MVD). This assay was performed according to the description by G. Henderson et al., Brit. J. Pharmacol., 46, 764 (1972). Both vasa deferentia were dissected out of mice and mounted singly through two platinum ring electrodes in a 10 ml organ bath. The bath contained Krebs bicarbonate solution that was continuously bubbled with 95% O2 and 5% CO2. The organ bath was maintained at 37° C. The tissue was attached to an isometric transducer and stimulated transmurally with rectangular pulses ([…], 1 ms duration, supramaximal voltage). Drugs were added cumulatively to the bath in 10- to 50-μl amounts and washed out after noting their maximum effect.
as §2

A further experiment has as its target T1, mu opioid receptor (Cavia porcellus, UniProt A0ACM8Q262).
T1 construct: antagonism of morphine
Put plainly: GPI assay, antagonism of morphine (mu). The experiment is classed as cell-based, guinea pig. The note with it: antagonist 100 nM, 15 min; for Kb: read-out: GPI Antagonism Ke (Morphine), Ke=[antagonist]/(IC50 ratio-1); for GPI Antagonism IC50 Ratio (Morphine): agonist morphine (mu). The procedure: as §1, §2

In experiment [3] the target is T2, delta opioid receptor (Mus musculus, UniProt P32300).
T2 construct: Both vasa deferentia were dissected out of mice; from tissue; host or cells: mouse vas deferens
T2 sequence (P32300 whole entry): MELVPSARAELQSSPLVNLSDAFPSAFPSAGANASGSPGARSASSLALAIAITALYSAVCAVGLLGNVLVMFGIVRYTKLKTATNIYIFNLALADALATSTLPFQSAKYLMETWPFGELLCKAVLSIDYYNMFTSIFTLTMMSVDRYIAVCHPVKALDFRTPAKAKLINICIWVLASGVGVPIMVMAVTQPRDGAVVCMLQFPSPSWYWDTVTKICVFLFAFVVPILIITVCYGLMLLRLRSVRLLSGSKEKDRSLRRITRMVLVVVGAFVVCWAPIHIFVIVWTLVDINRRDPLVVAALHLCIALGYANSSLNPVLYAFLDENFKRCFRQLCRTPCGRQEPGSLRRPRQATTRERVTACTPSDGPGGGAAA
The experiment can be described thus: MVD assay, antagonism of DADLE (delta). The experiment is classed as cell-based. The note with it: for Kb: read-out: MVD Antagonism Ke (DADLE); for δ-antagonist activity (in words): δ-selective agonist; for MVD Antagonism IC50 Ratio (DADLE): antagonist 100 nM, 15 min, agonist DADLE (delta). On the procedure: as §3, §2

The target in another experiment is T3, kappa opioid receptor (Cavia porcellus, UniProt P41144).
T3 construct: a strip of longitudinal muscle with the myenteric plexus attached was prepared; from tissue; host or cells: guinea pig ileum, longitudinal muscle strip with myenteric plexus
T3 sequence (P41144 whole entry): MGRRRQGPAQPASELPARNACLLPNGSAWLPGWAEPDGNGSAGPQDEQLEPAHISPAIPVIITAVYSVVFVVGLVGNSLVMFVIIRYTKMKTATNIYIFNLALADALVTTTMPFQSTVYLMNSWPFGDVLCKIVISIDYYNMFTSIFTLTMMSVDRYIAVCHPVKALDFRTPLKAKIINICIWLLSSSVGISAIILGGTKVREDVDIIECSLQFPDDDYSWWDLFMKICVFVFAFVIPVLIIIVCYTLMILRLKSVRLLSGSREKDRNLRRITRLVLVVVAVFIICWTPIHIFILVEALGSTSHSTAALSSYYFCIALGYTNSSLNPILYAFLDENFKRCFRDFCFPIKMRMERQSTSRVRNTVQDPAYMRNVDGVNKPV
Put plainly: GPI assay, antagonism of ethylketazocine (EK, kappa). The experiment is classed as cell-based, guinea pig. The note with it: antagonist 100 nM, 15 min; agonist ethylketazocine (kappa). On the procedure: as §1
Concentration-response curves were obtained in the absence (control) and the presence of the antagonist are expressed as IC50 values. The IC50 ratio represents the IC50 in the presence of the antagonist divided by the control IC50 value in the same tissue. […]

The next experiment has as its system ethanol drinking. The note with it: J. C. Froehlich et al. 1991; cited from earlier work.
The test system of experiment [4] is rats selectively bred for high voluntary ethanol drinking. The note with it: Ser. No. 07/750,109; cited from earlier work.
Experiment [5] relates to delta opioid receptor. The note with it: U.S. Pat. No. 4,816,586; cited from earlier work.
For a further experiment, the system named is rat model of alcoholism. The note with it: J. C. Froehlich et al. 1990; cited from earlier work.
In a further experiment the test system is recovering alcoholics. The note with it: J. R. Volpicelli et al. 1990; cited from earlier work.
[6] abbreviates: GPI, % Inhibition at 1000 nM (footnote 4).

T1 sequence (A0ACM8Q262 1-400): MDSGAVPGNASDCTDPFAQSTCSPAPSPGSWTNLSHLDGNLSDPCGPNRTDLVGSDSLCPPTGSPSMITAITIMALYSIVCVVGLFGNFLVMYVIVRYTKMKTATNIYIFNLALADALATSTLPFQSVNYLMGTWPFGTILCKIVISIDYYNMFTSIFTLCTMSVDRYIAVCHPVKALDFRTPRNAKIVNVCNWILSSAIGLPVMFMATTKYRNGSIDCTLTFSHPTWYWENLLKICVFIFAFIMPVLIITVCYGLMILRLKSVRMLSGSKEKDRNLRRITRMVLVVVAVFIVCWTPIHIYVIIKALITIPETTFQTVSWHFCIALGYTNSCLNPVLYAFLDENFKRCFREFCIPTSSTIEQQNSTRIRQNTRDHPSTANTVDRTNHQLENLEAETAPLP

Turning to “7-(4',5'-Benz-2'-spiroindano)naltrexone and 7-(6',7'-Benz-2'-spiroindano)naltrexone [Compound 3e]”, in experiment [1] (setting [6]), the “GPI Agonism % Inhibition” value is 20.3%. The “MVD Agonism % Inhibition” value in experiment [2] is on record as 15.6%.
Regarding “7-(4,-Methoxy-2,-spiroindano)naltrexone and 7-(7' -Methoxy-2'-spiroindano)-naltrexone [Compound 3b]”, the “GPI Agonism % Inhibition” value in experiment [1] (setting [6]) is -15.0%. In addition, at mu opioid receptor, the Kb worked out at 13.4 nM. The “MVD Agonism % Inhibition” value in experiment [2] was 23.1%.
For the compound “7-(5'-Methoxy-2'-spiroindano)naltrexone and 7-(6'-Methoxy-2'-spiroindano)naltrexone [Compound 3c]”, the “GPI Agonism % Inhibition” value in [1] (setting [6]) is on record as -8.8%. In addition, the “MVD Agonism % Inhibition” value in experiment [2] is on record as 10.5%.
With `O=C1[C@@H]2Oc3c(O)ccc4c3[C@@]23CCN(CC2CC2)[C@H](C4)[C@]3(O)CC12Cc1ccccc1C2` [Compound 3a], the Kb on delta opioid receptor [3] is 0.78 nM; at mu opioid receptor, 41 nM. Moreover, the “δ-antagonist activity (in words)” value on delta opioid receptor [3] is “potent δ-antagonist activity”.
As for `O=C1[C@@H]2Oc3c(O)ccc4c3[C@@]23CCN(CC2CC2)[C@H](C4)[C@]3(O)CC12Cc1cc3ccccc3cc1C2` [Compound 3d, 7-(5',6'-Benz-2'-spiroindano)naltrexone], at delta opioid receptor [3], the “MVD Antagonism IC50 Ratio (DADLE)” value is on record as 428, the Kb turned out to be 0.234 nM and the “δ-antagonist activity (in words)” value is given as “most potent antagonist”. Further, in experiment [1], the “agonist activity for μ-receptors (in words)” value is “potent agonist activity”. Also, in [1] (Cavia porcellus, read-out: GPI Agonism IC50), the IC50 turned out to be 253 nM. Further, in experiment [1] (GPI, morphine = 1), the “GPI Agonism Potency (relative to morphine)” value turned out to be 0.47. In addition, the “GPI Antagonism IC50 Ratio (EK)” value at kappa opioid receptor was determined as 0.18. Besides, on mu opioid receptor, the “GPI Antagonism IC50 Ratio (Morphine)” value worked out at 0.97. This compound returned an inhibition at 1 µM in experiment [2] of 15.4%.
As for `O=C1[C@@H]2Oc3c(O)ccc4c3[C@@]23CCN(CC2CC2)[C@H](C4)[C@]3(O)CC12Cc1cccc3cccc(c13)C2` [Compound 3f, 7-(2',3'-Dihydro-2'-spiroperinaphtheno)naltrexone], at delta opioid receptor [3], the “MVD Antagonism IC50 Ratio (DADLE)” value turned out to be 8 and the Kb came to 14.9 nM. Further, in [1] (Cavia porcellus, GPI, % Inhibition at 1000 nM (footnote 4), read-out: GPI Agonism % Inhibition), the inhibition at 1 µM was 16%. Besides, on kappa opioid receptor, the “GPI Antagonism IC50 Ratio (EK)” value is listed as 0.39. Besides, the “GPI Antagonism IC50 Ratio (Morphine)” value at mu opioid receptor is 0.89. Besides, in [2], the inhibition at 1 µM is 13%.
For `C=CCN(CC=C)[C@@H](Cc1ccc(O)cc1)C(=O)NC(C)(C)C(=O)NC(C)(C)C(=O)N[C@@H](Cc1ccccc1)C(=O)N[C@@H](CC(C)C)C(=O)O` [ICI 174864, N,N-diallyl-Tyr-Aib-Aib-Phe-Leu-OH] ({Tyr(Nα,Nα-allyl2)}-[Aib][Aib]FL-OH), in the experiment with ethanol drinking, the duration of action entry is recorded as “very short duration of action” and the ethanol drinking result is recorded as “strongly inhibits ethanol drinking”.
On to `Oc1ccc2c3c1O[C@H]1c4oc5ccccc5c4C[C@@]4(O)[C@@H](C2)N(CC2CC2)CC[C@]314` [NTB], for which, in experiment [4], the “ethanol drinking and water intake” value was “unexpectedly prolonged suppression of ethanol drinking without altering water intake”.
As to `Oc1ccc2c3c1O[C@H]1c4[nH]c5ccccc5c4C[C@@]4(O)[C@@H](C2)N(CC2CC2)CC[C@]314` [NTI, naltrindole], the “ethanol drinking and water intake” value in experiment [4] is listed as “unexpectedly prolonged suppression of ethanol drinking without altering water intake”. Further, the “selectivity and potency at delta receptors” value in the experiment on delta opioid receptor [5] is on record as “highly selective”.
As for `C=CCN1CC[C@]23c4c5ccc(O)c4O[C@H]2C(=O)CC[C@@]3(O)[C@H]1C5` [Naloxone], the “ethanol and water intake” value in the experiment on rat model of alcoholism is “suppress ethanol but not water intake”.
`O=C1CC[C@@]2(O)[C@H]3Cc4ccc(O)c5c4[C@@]2(CCN3CC2CC2)[C@H]1O5` [naltrexone]: the “incidence of relapse in recovering alcoholics” value in the experiment with recovering alcoholics is given as “reduce the incidence of relapse in recovering alcoholics”.
